pIC50: −log10 of the molar value. Structures can show the parent of a compound that is named as a salt. Values belong to the molecule of their own block, whether it stands above or below them.
How the values were obtained:
Lp-PLA2 in human plasma = target: T1, Lp-PLA2 in human plasma (Homo sapiens, UniProt Q13093); assay: Lp-PLA2 human plasma assay (Thio-PAF assay); format: biochemical; settings: pooled human plasma, 2-thio-PAF substrate; read-out: pIC50 in the thio-PAF assay (converted)
T1 construct: This assay may detect the activity of Lp-PLA2 in human plasma; from tissue; host or cells: pooled human plasma
T1 sequence (Q13093 22-441): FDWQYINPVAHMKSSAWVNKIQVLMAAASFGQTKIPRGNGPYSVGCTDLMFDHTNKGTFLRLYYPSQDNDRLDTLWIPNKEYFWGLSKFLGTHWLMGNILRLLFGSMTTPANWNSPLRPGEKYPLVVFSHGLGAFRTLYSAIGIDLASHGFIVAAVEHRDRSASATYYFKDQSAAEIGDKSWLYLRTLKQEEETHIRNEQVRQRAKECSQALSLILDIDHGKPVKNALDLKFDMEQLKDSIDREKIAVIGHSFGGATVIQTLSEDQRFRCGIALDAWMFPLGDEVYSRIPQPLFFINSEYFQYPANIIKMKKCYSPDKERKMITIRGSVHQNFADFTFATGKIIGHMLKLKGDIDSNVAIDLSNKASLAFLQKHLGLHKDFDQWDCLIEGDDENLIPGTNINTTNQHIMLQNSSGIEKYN
Outline: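 Pooled human plasma preincubated 30 min with serially diluted compounds, then 2-thio-PAF substrate with CPM and NEM added in 50 mM HEPES pH 7.4, 150 mM NaCl, 1 mM CHAPS. TFA-quenched after 2 min, 40 min at RT, fluorescence ex 380/em 485; pIC50 from curve fit.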

[1] = target: T2, recombinant human Lp-PLA2 (Homo sapiens, UniProt Q13093); assay: Recombinant human Lp-PLA2 assay (rhLp-PLA2, PED6 assay); format: biochemical; settings: recombinant human Lp-PLA2, PED6 substrate; upper limit for pIC50 in this assay is 9.3
T2 sequence (Q13093 22-441): T1 sequence (Q13093 22-441)
Outline: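 Compound preincubated 30 min with rhLp-PLA2 (4 nM or 110 pM) in 50 mM HEPES pH 7.4, 150 mM NaCl, 1 mM CHAPS, then PED6 substrate (4 μM or 5 μM) added. After 20 min at room temperature protected from light, fluorescence read at ex 480/em 540. pIC50 derived from serial-dilution curves.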

IC50 (Lp-PLA2 in human plasma): ≤ 100 nM | pIC50 [1]: ≥ 9.00
Compound: N#Cc1cc(COc2cc3n(c(=O)n2)CCN3)ccc1Oc1cccc(C(F)(F)F)c1 [Example E67, 5-(((5-oxo-1,2,3,5-tetrahydroimidazo[1,2-c]pyrimidin-7-yl)oxy)methyl)-2-(3-(trifluoromethyl)phenoxy)benzonitrile]

IC50 (Lp-PLA2 in human plasma): ≤ 1000 nM | pIC50 [1]: ≥ 8.00
Compound: CN1CCn2c1cc(OCc1ccc(Oc3cccc(C#N)c3)c(C#N)c1)nc2=O [Example E62, 2-(3-cyanophenoxy)-5-(((l-methyl-5-oxo-1,2,3,5-tetrahydroimidazo[1,2-c]pyrimidin-7-yl)oxy)methyl)benzonitrile, trifluoroacetic acid salt]

IC50 (Lp-PLA2 in human plasma): ≤ 100 nM | pIC50 [1]: ≥ 9.00
Compound: CN1CCn2c1cc(OCc1ccc(Oc3ccc(F)c(C(F)(F)F)c3)c(F)c1)nc2=O [Example E45, 7-((3-fluoro-4-(4-fluoro-3-(trifluoromethyl)phenoxy)benzyl)oxy)-1-methyl-2,3-dihydroimidazo[1,2-c]pyrimidin-5(1H)-one, trifluoroacetic acid salt]

IC50 (Lp-PLA2 in human plasma): ≤ 1000 nM | pIC50 [1]: ≥ 8.00
Compound: CN1CCn2c1cc(OCc1ccc(Oc3cnc(F)c(F)c3)c(C#N)c1)nc2=O [Example E73, 2-((5,6-difluoropyridin-3-yl)oxy)-5-(((1-methyl-5-oxo-1,2,3,5-tetrahydroimidazo[1,2-c]pyrimidin-7-yl)oxy)methyl)benzonitrile]

IC50 (Lp-PLA2 in human plasma): ≤ 1000 nM | pIC50 [1]: ≥ 8.00
Compound: CN1CCn2c1cc(OCc1ccc(Oc3ccc(C(F)(F)F)cn3)c(C#N)c1)nc2=O [Example E35, 5-(((1-methyl-5-oxo-1,2,3,5-tetrahydroimidazo[1,2-c]pyrimidin-7-yl)oxy)methyl)-2-((5-(trifluoromethyl)pyridin-2-yl)oxy)benzonitrile, trifluoroacetic acid salt]

IC50 (Lp-PLA2 in human plasma): ≤ 1000 nM | pIC50 [1]: ≥ 9.00
Compound: N#Cc1cc(COc2cc3n(c(=O)n2)CCN3)ccc1Oc1ccc(F)c(Cl)c1 [Example E76, 2-(3-chloro-4-fluorophenoxy)-5-(((5-oxo-1,2,3,5-tetrahydroimidazo[1,2-c]pyrimidin-7-yl)oxy)methyl)benzonitrile, trifluoroacetic acid salt]

IC50 (Lp-PLA2 in human plasma): ≤ 100 nM | pIC50 [1]: ≥ 8.00
Compound: N#Cc1ccc(Oc2ccc(COc3cc4n(c(=O)n3)CCN4)cc2C#N)cc1F [Example E64, 4-(2-cyano-4-(((5-oxo-1,2,3,5-tetrahydroimidazo[1,2-c]pyrimidin-7-yl)oxy)methyl)p-henoxy)-2-fluorobenzonitrile]

IC50 (Lp-PLA2 in human plasma): ≤ 1000 nM | pIC50 [1]: ≥ 8.00
Compound: CN1CCn2c1cc(OCc1ccc(Oc3cc(F)c(F)c(F)c3)c(C#N)c1)nc2=O [Example E38, 5-(((1-methyl-5-oxo-1,2,3,5-tetrahydroimidazo[1,2-c]pyrimidin-7-yl)oxy)methyl)-2-(3,4,5-trifluorophenoxy)benzonitrile, trifluoroacetic acid salt]

IC50 (Lp-PLA2 in human plasma): ≤ 100 nM | pIC50 [1]: > 9.30
Compound: CN1CCn2c1cc(OCc1ccc(Oc3ccc(F)c(C(F)(F)F)c3)c(C#N)c1)nc2=O [Example E44, 2-(4-fluoro-3-(trifluoromethyl)phenoxy)-5-(((1-methyl-5-oxo-1,2,3,5-tetrahydroi-midazo[1,2-c]pyrimidin-7-yl)oxy)methyl)benzonitrile, trifluoroacetic acid salt]

IC50 (Lp-PLA2 in human plasma): ≤ 1000 nM | pIC50 [1]: ≥ 8.00
Compound: CN1CCn2c1cc(OCc1ccc(Oc3ccc(C(F)(F)F)cc3)c(C#N)c1)nc2=O [Example E24, 5-(((1-methyl-5-oxo-1,2,3,5-tetrahydroimidazo[1,2-c]pyrimidin-7-yl)oxy)methyl)-2-(4-(trifluoromethyl)phenoxy)benzonitrile, trifluoroacetic acid salt]

IC50 (Lp-PLA2 in human plasma): ≤ 1000 nM | pIC50 [1]: ≥ 9.00
Compound: N#Cc1cc(COc2cc3n(c(=O)n2)CCN3)ccc1Oc1ccc(F)c(F)c1 [Example E72, 2-(3,4-difluorophenoxy)-5-(((5-oxo-1,2,3,5-tetrahydroimidazo[1,2-c]pyrimidin-7-yl)oxy)methyl)benzonitrile, trifluoroacetic acid salt]

IC50 (Lp-PLA2 in human plasma): ≤ 100 nM | pIC50 [1]: ≥ 8.00
Compound: CN1CCn2c1cc(OCc1ccc(Oc3ccc(F)c(C#N)c3)c(C#N)c1)nc2=O [Example E52, 5-(2-cyano-4-(((1-methyl-5-oxo-1,2,3,5-tetrahydroimidazo[1,2-c]pyrimidin-7-yl)oxy)methyl)phenoxy)-2-fluorobenzonitrile]

IC50 (Lp-PLA2 in human plasma): ≤ 100 nM | pIC50 [1]: 9.20
Compound: N#Cc1cc(COc2cc3n(c(=O)n2)CCN3)ccc1Oc1ccc(C(F)(F)F)c(F)c1 [Example E65, 2-(3-fluoro-4-(trifluoromethyl)phenoxy)-5-(((5-oxo-1,2,3,5-tetrahydroimidazo[1,2-c]pyrimidin-7-yl)oxy)methyl)benzonitrile]

IC50 (Lp-PLA2 in human plasma): ≤ 1000 nM | pIC50 [1]: ≥ 8.00
Compound: CC(C)N1CCn2c1cc(OCc1ccc(Oc3ccc(F)c(F)c3)c(C#N)c1)nc2=O [Example E53, 2-(3,4-difluorophenoxy)-5-(((1-isopropyl-5-oxo-1,2,3,5-tetrahydroimidazo[1,2-c]pyrimidin-7-yl)oxy)methyl)benzonitrile]

IC50 (Lp-PLA2 in human plasma): ≤ 100 nM | pIC50 [1]: ≥ 9.00
Compound: CN1CCn2c1cc(OCc1cc(F)c(Oc3ccc(F)c(Cl)c3)c(F)c1)nc2=O [Example E87, 7-((4-(3-chloro-4-fluorophenoxy)-3,5-difluorobenzyl)oxy)-1-methyl-2,3-dihydroimidazo[1,2-c]pyrimidin-5(1H)-one]

IC50 (Lp-PLA2 in human plasma): ≤ 100 nM | pIC50 [1]: ≥ 9.00
Compound: O=c1nc(OCc2ccc(Oc3ccc(F)c(C(F)(F)F)c3)c(F)c2)cc2n1CCN2 [Example E66, 7-((3-fluoro-4-(4-fluoro-3-(trifluoromethyl)phenoxy)benzyl)oxy)-2,3-dihydroimidaz-o[1,2-c]pyrimidin-5(1H)-one]

The next lines start with the molecule.

Compound: CN1CCn2c1cc(OCc1ccc(Oc3ccnc(Cl)c3)c(C#N)c1)nc2=O [Example 107, 2-((2-chloropyridin-4-yl)oxy)-5-(((1-methyl-5-oxo-1,2,3,5-tetrahydroimidazo[1,2-c]pyrimidin-7-yl)oxy)methyl)benzonitrile]
IC50 (Lp-PLA2 in human plasma): ≤ 1000 nM | pIC50 [1]: ≥ 8.00

Compound: CN1CCn2c1cc(OCc1ccc(Oc3cc(F)cc(C(F)(F)F)c3)c(C#N)c1)nc2=O [Example 116]
IC50 (Lp-PLA2 in human plasma): ≤ 100 nM | pIC50 [1]: ≥ 9.00

Compound: CN1CCn2c1cc(OCc1ccc(Oc3ccnc(C#N)c3)c(F)c1)nc2=O [Example 129, 4-(2-fluoro-4-(((1-methyl-5-oxo-1,2,3,5-tetrahydroimidazo[1,2-c]pyrimidin-7-yl)oxy)methyl)phenoxy)picolinonitrile, trifluoroacetic acid salt]
IC50 (Lp-PLA2 in human plasma): ≤ 1000 nM | pIC50 [1]: ≥ 8.00

Compound: CN1CCn2c1cc(OCc1cc(F)c(Oc3cccc(C#N)c3)c(F)c1)nc2=O [Example 104, 3-(2,6-difluoro-4-(((1-methyl-5-oxo-1,2,3,5-tetrahydroimidazo[1,2-c]pyrimidin-7-yl)oxy)methyl)phenoxy)benzonitrile]
IC50 (Lp-PLA2 in human plasma): ≤ 1000 nM | pIC50 [1]: ≥ 8.00

Compound: N#Cc1cc(COc2cc3n(c(=O)n2)CCN3)ccc1Oc1ccc(Cl)c(C(F)(F)F)c1 [Example 96, 2-(4-chloro-3-(trifluoromethyl)phenoxy)-5-(((5-oxo-1,2,3,5-tetrahydroimidazo[1,2-c]pyrimidin-7-yl)oxy)methyl)benzonitrile]
IC50 (Lp-PLA2 in human plasma): ≤ 100 nM | pIC50 [1]: ≥ 8.00

Compound: CN1CCn2c1cc(OCc1ccc(Oc3ccnc(Cl)c3)c(F)c1)nc2=O [Example 109, 7-((4-((2-chloropyridin-4-yl)oxy)-3-fluorobenzyl)oxy)-1-methyl-2,3-dihydroimidaz-o[1,2-c]pyrimidin-5(1H)-one]
IC50 (Lp-PLA2 in human plasma): ≤ 1000 nM | pIC50 [1]: ≥ 8.00

Compound: O=c1nc(OCc2ccc(Oc3ccnc(C(F)(F)F)c3)c(F)c2)cc2n1CCN2 [Example 119, 7-((3-fluoro-4-((2-(trifluoromethyl)pyridin-4-yl)oxy)benzyl)oxy)-2,3-dihydroimidazo[1,2-c]pyrimidin-5(1H)-one]
IC50 (Lp-PLA2 in human plasma): ≤ 100 nM | pIC50 [1]: 8.60

Compound: CN1CCn2c1cc(OCc1ccc(Oc3ccc(Cl)nc3)c(C#N)c1)nc2=O [Example 100, 2-((6-chloropyridin-3-yl)oxy)-5-(((1-methyl-5-oxo-1,2,3,5-tetrahydroimidazo[1,2-c]pyrimidin-7-yl)oxy)methyl)benzonitrile]
IC50 (Lp-PLA2 in human plasma): ≤ 1000 nM | pIC50 [1]: ≥ 8.00

Compound: CN1CCn2c1cc(OCc1ccc(Oc3ccnc(C(F)(F)F)c3)c(F)c1)nc2=O [Example 94, 7-((3-fluoro-4-((2-(trifluoromethyl)pyridin-4-yl)oxy)benzyl)oxy)-1-methyl-2,3-dihydroimidazo[1,2-c]pyrimidin-5(1H)-one]
IC50 (Lp-PLA2 in human plasma): ≤ 100 nM | pIC50 [1]: 8.80

Compound: Cc1cc(Oc2ccc(COc3cc4n(c(=O)n3)CCN4C)cc2F)ccc1C#N [Example 149, 4-(2-fluoro-4-(((1-methyl-5-oxo-1,2,3,5-tetrahydroimidazo[1,2-c]pyrimidin-7-yl)oxy)methyl)phenoxy)-2-methylbenzonitrile]
IC50 (Lp-PLA2 in human plasma): ≤ 1000 nM | pIC50 [1]: ≥ 8.00
